Measured values: ChEMBL document CHEMBL4879554, “Data for DCP probe GNE-2256” (2021)
pIC50: −log10 of the molar value.

Tests used:
[1] = biological target: Aurora kinase A (Homo sapiens) (UniProt O14965); assay: Aurora_A Kinase panel; conditions: Compound concentration 1.0 uM
[2] = biological target: Tyrosine-protein kinase BTK (Homo sapiens) (UniProt Q06187); assay: BTK Kinase panel; conditions: Compound concentration 1.0 uM
[3] = biological target: Protein-tyrosine kinase 6 (Homo sapiens) (UniProt Q13882); assay: Brk Kinase panel; conditions: Compound concentration 1.0 uM
[4] = biological target: Cyclin-dependent kinase 5/CDK5 activator 1 (Homo sapiens) (UniProt Q00535+Q15078); assay: CDK5/p25 Kinase panel; format: protein-complex assay; conditions: Compound concentration 1.0 uM
[5] = biological target: Serine/threonine-protein kinase Chk2 (Homo sapiens) (UniProt O96017); assay: CHK2 Kinase panel; conditions: Compound concentration 1.0 uM
[6] = biological target: Casein kinase I isoform delta (Homo sapiens) (UniProt P48730); assay: CK1_delta Kinase panel; conditions: Compound concentration 1.0 uM
[7] = biological target: Tyrosine-protein kinase CSK (Homo sapiens) (UniProt P41240); assay: CSK Kinase panel; conditions: Compound concentration 1.0 uM
[8] = biological target: Calcium/calmodulin-dependent protein kinase type IV (Homo sapiens) (UniProt Q16566); assay: CamKIV Kinase panel; conditions: Compound concentration 1.0 uM
[9] = biological target: Myotonin-protein kinase (Homo sapiens) (UniProt Q09013); assay: DMPK Kinase panel; conditions: Compound concentration 1.0 uM
[10] = biological target: Ephrin type-A receptor 1 (Homo sapiens) (UniProt P21709); assay: EphA1 Kinase panel; conditions: Compound concentration 1.0 uM
Sequence of Ephrin type-A receptor 1 (Homo sapiens) (P21709 whole entry): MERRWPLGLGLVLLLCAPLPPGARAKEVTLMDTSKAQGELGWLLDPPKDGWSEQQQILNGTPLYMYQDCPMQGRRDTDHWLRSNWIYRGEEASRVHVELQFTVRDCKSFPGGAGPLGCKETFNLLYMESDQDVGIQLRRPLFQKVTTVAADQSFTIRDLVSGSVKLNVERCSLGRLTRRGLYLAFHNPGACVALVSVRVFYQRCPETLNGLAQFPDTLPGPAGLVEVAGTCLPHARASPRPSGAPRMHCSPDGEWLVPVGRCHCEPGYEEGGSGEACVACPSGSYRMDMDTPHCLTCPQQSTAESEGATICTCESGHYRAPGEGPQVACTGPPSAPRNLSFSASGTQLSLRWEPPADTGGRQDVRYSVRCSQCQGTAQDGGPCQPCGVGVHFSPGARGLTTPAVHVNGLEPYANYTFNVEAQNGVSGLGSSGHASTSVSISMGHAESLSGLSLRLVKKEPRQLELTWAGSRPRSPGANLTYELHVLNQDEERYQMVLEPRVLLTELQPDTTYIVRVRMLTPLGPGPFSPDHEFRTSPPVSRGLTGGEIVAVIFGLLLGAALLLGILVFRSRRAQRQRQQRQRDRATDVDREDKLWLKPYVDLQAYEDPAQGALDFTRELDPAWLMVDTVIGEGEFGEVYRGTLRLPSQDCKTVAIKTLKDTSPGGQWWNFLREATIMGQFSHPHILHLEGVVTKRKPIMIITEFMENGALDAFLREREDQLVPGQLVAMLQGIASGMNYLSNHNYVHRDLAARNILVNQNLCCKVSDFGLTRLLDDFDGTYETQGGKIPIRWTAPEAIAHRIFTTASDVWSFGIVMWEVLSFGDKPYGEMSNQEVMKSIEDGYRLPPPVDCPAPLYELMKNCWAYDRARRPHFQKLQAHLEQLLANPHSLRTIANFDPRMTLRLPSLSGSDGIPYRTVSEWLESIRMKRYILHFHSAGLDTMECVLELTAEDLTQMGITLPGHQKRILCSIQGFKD

[11] = biological target: Homeodomain-interacting protein kinase 1 (Homo sapiens) (UniProt Q86Z02); assay: HIPK1 Kinase panel; conditions: Compound concentration 1.0 uM
[12] = biological target: Inhibitor of nuclear factor kappa-B kinase subunit beta (Homo sapiens) (UniProt O14920); assay: IKK_beta Kinase panel; conditions: Compound concentration 1.0 uM
[13] = biological target: Mitogen-activated protein kinase 8 (Homo sapiens) (UniProt P45983); assay: JNK1_alpha1 Kinase panel; conditions: Compound concentration 1.0 uM
[14] = biological target: Vascular endothelial growth factor receptor 2 (Homo sapiens) (UniProt P35968); assay: KDR Kinase panel; conditions: Compound concentration 1.0 uM
[15] = biological target: Leucine-rich repeat serine/threonine-protein kinase 2 (Homo sapiens) (UniProt Q5S007); assay: LRRK2 Kinase panel; conditions: Compound concentration 1.0 uM
[16] = biological target: Tyrosine-protein kinase Lck (Homo sapiens) (UniProt P06239); assay: Lck Kinase panel; conditions: Compound concentration 1.0 uM
[17] = biological target: Dual specificity mitogen-activated protein kinase kinase 1 (Homo sapiens) (UniProt Q02750); assay: MEK1 Kinase panel; conditions: Compound concentration 1.0 uM
[18] = biological target: Dual specificity mitogen-activated protein kinase kinase 3 (Homo sapiens) (UniProt P46734); assay: MEK3 Kinase panel; conditions: Compound concentration 1.0 uM
[19] = biological target: Dual specificity mitogen-activated protein kinase kinase 6 (Homo sapiens) (UniProt P52564); assay: MKK6 Kinase panel; conditions: Compound concentration 1.0 uM
[20] = biological target: Serine/threonine-protein kinase 4 (Homo sapiens) (UniProt Q13043); assay: MST1 Kinase panel; conditions: Compound concentration 1.0 uM
[21] = biological target: Hepatocyte growth factor receptor (Homo sapiens) (UniProt P08581); assay: Met Kinase panel; conditions: Compound concentration 1.0 uM
[22] = biological target: Serine/threonine-protein kinase Nek1 (Homo sapiens) (UniProt Q96PY6); assay: NEK1 Kinase panel; conditions: Compound concentration 1.0 uM
[23] = biological target: Serine/threonine-protein kinase Nek4 (Homo sapiens) (UniProt P51957); assay: NEK4 Kinase panel; conditions: Compound concentration 1.0 uM
[24] = biological target: Serine/threonine-protein kinase Nek6 (Homo sapiens) (UniProt Q9HC98); assay: NEK6 Kinase panel; conditions: Compound concentration 1.0 uM
[25] = biological target: PAS domain-containing serine/threonine-protein kinase (Homo sapiens) (UniProt Q96RG2); assay: PASK Kinase panel; conditions: Compound concentration 1.0 uM
[26] = biological target: Protein kinase C alpha type (Homo sapiens) (UniProt P17252); assay: PKC_alpha Kinase panel; conditions: Compound concentration 1.0 uM
[27] = biological target: Protein kinase C epsilon type (Homo sapiens) (UniProt Q02156); assay: PKC_epsilon Kinase panel; conditions: Compound concentration 1.0 uM
[28] = biological target: Serine/threonine-protein kinase D1 (Homo sapiens) (UniProt Q15139); assay: PKD1 Kinase panel; conditions: Compound concentration 1.0 uM
Sequence of Serine/threonine-protein kinase D1 (Homo sapiens) (Q15139 whole entry): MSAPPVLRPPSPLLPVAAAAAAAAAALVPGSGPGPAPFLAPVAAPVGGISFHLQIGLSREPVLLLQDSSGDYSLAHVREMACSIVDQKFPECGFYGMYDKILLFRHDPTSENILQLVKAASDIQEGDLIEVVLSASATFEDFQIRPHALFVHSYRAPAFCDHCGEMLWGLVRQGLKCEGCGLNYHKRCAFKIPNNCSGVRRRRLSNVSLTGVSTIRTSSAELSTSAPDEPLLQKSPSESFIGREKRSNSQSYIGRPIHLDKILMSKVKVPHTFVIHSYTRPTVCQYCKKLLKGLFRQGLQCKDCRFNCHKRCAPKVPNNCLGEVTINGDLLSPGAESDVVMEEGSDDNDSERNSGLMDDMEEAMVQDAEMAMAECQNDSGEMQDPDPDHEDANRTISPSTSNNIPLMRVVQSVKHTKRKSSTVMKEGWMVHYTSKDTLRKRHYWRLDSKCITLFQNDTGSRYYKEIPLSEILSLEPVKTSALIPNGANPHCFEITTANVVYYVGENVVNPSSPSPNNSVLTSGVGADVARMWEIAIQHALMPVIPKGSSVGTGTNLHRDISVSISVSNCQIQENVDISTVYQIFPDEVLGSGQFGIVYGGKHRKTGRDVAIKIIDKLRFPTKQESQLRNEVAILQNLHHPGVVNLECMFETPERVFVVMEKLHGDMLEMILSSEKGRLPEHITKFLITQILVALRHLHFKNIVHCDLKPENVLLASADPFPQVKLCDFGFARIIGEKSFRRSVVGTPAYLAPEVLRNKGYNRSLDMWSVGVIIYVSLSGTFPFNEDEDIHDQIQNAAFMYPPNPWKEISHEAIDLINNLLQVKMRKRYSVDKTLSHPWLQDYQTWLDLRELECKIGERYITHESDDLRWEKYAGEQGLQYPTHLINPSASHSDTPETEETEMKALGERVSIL

[29] = biological target: cGMP-dependent protein kinase 1 (Homo sapiens) (UniProt Q13976); assay: PKG1_alpha Kinase panel; conditions: Compound concentration 1.0 uM
[30] = biological target: Proto-oncogene tyrosine-protein kinase ROS (Homo sapiens) (UniProt P08922); assay: Ros Kinase panel; conditions: Compound concentration 1.0 uM
Sequence of Proto-oncogene tyrosine-protein kinase ROS (Homo sapiens) (P08922 whole entry): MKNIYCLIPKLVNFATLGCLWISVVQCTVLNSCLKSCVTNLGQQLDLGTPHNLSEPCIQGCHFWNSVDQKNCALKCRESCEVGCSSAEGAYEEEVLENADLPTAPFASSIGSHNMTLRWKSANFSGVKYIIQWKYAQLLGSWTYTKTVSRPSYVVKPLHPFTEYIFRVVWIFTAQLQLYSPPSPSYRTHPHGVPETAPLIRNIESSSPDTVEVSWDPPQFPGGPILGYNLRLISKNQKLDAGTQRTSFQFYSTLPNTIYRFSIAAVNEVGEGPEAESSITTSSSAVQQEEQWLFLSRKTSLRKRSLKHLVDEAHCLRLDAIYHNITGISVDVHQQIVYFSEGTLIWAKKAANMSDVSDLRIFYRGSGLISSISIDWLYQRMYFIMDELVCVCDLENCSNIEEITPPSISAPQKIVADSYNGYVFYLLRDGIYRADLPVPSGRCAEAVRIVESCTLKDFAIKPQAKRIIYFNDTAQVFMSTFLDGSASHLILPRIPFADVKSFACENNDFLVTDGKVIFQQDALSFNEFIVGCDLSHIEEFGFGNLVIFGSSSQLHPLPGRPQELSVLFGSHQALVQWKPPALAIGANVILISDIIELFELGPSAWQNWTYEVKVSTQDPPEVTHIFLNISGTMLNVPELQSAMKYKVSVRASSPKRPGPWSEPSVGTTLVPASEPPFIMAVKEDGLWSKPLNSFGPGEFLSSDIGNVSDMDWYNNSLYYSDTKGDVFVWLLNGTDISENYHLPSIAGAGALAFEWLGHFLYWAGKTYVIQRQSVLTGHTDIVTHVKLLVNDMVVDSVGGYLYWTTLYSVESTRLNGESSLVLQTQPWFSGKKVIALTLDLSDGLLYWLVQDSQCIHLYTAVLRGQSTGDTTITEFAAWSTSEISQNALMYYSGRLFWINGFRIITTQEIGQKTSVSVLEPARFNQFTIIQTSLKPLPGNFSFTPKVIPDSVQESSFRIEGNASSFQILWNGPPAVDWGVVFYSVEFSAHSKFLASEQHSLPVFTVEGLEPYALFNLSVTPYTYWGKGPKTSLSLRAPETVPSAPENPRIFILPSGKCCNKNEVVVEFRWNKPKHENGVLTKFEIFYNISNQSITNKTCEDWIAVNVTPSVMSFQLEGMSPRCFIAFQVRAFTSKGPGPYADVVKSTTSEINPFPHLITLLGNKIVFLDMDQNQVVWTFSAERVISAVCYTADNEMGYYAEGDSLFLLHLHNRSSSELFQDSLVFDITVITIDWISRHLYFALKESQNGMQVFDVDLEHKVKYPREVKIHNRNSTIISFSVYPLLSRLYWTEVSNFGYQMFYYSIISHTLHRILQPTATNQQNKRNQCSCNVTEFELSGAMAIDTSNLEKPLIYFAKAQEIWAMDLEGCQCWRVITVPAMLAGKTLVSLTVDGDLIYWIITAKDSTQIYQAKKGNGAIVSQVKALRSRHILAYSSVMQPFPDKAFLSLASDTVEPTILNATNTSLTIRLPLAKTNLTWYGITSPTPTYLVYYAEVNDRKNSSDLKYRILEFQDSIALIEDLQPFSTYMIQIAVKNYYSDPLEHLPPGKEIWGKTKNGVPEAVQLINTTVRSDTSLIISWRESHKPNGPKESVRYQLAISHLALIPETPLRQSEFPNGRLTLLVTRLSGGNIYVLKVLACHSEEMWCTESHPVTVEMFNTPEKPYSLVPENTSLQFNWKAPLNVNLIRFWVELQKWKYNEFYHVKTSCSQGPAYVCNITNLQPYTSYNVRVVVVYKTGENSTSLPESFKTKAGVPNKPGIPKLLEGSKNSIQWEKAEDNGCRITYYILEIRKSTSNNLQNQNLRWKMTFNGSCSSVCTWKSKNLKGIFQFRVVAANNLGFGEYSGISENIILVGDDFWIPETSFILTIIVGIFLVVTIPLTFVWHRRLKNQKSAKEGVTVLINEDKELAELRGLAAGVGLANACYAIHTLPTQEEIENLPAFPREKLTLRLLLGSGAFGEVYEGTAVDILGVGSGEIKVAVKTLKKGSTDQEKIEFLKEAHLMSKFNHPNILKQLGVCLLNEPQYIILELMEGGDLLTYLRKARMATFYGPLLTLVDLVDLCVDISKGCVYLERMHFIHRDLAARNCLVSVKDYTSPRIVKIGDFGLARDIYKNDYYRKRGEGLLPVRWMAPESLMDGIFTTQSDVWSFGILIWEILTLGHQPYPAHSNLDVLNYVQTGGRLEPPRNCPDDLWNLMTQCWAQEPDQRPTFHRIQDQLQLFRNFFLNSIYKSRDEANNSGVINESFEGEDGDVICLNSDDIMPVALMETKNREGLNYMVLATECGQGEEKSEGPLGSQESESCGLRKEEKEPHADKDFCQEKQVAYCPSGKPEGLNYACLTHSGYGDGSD

[31] = (§1) TAK1-TAB1 Kinase panel; parameters: species or system Homo sapiens
Homo sapiens [32] = species on record: Homo sapiens; assay: as §1; conditions: Compound concentration 1.0 uM
Homo sapiens [33] = species on record: Homo sapiens; assay: (§2) TAO1 Kinase panel; conditions: Compound concentration 1.0 uM
[34] = biological target: Serine/threonine-protein kinase TAO1 (Homo sapiens) (UniProt Q7L7X3); assay: as §2; conditions: Compound concentration 1.0 uM
[35] = biological target: Serine/threonine-protein kinase TBK1 (Homo sapiens) (UniProt Q9UHD2); assay: TBK1 Kinase panel; conditions: Compound concentration 1.0 uM
[36] = biological target: Testis-specific serine/threonine-protein kinase 1 (Homo sapiens) (UniProt Q9BXA7); assay: TSSK1 Kinase panel; conditions: Compound concentration 1.0 uM
[37] = biological target: Dual specificity protein kinase TTK (Homo sapiens) (UniProt P33981); assay: TTK Kinase panel; conditions: Compound concentration 1.0 uM
[38] = biological target: 5-hydroxytryptamine receptor 1A (Homo sapiens) (UniProt P08908); conditions: Compound concentration 10.0 uM
Sequence of 5-hydroxytryptamine receptor 1A (Homo sapiens) (P08908 whole entry): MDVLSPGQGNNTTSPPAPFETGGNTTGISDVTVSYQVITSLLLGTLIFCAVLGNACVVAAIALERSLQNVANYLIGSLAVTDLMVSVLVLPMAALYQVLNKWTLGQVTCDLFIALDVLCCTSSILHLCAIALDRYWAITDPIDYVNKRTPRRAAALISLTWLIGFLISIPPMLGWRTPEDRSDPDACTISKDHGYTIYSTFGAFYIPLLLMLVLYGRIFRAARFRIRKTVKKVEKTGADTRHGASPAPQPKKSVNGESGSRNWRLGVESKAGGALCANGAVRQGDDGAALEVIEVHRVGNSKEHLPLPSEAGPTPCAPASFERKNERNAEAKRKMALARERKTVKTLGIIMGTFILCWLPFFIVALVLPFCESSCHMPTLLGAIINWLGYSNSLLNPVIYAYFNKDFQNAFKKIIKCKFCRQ

[39] = biological target: 5-hydroxytryptamine receptor 1D (Homo sapiens) (UniProt P28221); conditions: Compound concentration 10.0 uM
Sequence of 5-hydroxytryptamine receptor 1D (Homo sapiens) (P28221 whole entry): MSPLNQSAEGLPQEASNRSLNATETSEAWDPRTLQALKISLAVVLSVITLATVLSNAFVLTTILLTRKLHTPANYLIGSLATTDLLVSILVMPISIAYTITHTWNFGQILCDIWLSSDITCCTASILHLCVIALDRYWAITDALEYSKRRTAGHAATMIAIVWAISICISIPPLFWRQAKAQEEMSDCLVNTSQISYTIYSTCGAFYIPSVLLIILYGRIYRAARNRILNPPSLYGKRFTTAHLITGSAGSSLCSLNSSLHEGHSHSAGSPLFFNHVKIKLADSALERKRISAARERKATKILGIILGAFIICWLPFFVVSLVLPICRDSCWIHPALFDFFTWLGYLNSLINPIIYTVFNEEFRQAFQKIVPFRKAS

[40] = biological target: 5-hydroxytryptamine receptor 2C (Homo sapiens) (UniProt P28335); conditions: Compound concentration 10.0 uM
[41] = biological target: Mu-type opioid receptor (Homo sapiens) (UniProt P35372); conditions: Compound concentration 10.0 uM
[42] = biological target: Kappa-type opioid receptor (Homo sapiens) (UniProt P41145); conditions: Compound concentration 10.0 uM
[43] = biological target: Histamine H1 receptor (Homo sapiens) (UniProt P35367); conditions: Compound concentration 10.0 uM
[44] = biological target: Muscarinic acetylcholine receptor M1 (Homo sapiens) (UniProt P11229); conditions: Compound concentration 10.0 uM
Rattus norvegicus = species on record: Rattus norvegicus; conditions: Compound concentration 10.0 uM
[45] = biological target: Alpha-1D adrenergic receptor (Homo sapiens) (UniProt P25100); conditions: Compound concentration 10.0 uM
[46] = biological target: Sigma intracellular receptor 2 (Homo sapiens) (UniProt Q5BJF2); conditions: Compound concentration 10.0 uM

**Q.** For `CC(C)(O)[C@H](F)CN1Cc2cc(NC(=O)c3cnn4cccnc34)c(N3CCOCC3)cc2C1=O`, which inhibition [1] is on record?
**A.** 20.5%

**Q.** And the inhibition [2]?
**A.** 42%

**Q.** And the inhibition [3]?
**A.** 10.5%

**Q.** And the inhibition [4]?
**A.** 9%

**Q.** What about the inhibition [5] of the same compound?
**A.** 13%

**Q.** And the inhibition [6]?
**A.** 1.5%

**Q.** What about the inhibition [7] of the same compound?
**A.** 22%

**Q.** And the inhibition [8]?
**A.** -6%

**Q.** And the inhibition [9]?
**A.** 2.1%

**Q.** What about the inhibition [10] of the same compound?
**A.** 20.8%

**Q.** And the inhibition [11]?
**A.** -0%

**Q.** What about the inhibition [12] of the same compound?
**A.** 1.5%

**Q.** And the inhibition [13]?
**A.** -1.5%

**Q.** What about the inhibition [14] of the same compound?
**A.** 17%

**Q.** What about the inhibition [15] of the same compound?
**A.** 91.4%

**Q.** And the inhibition [16]?
**A.** 41.3%

**Q.** What about the inhibition [17] of the same compound?
**A.** 20.5%

**Q.** And the inhibition [18]?
**A.** 12%

**Q.** And the inhibition [19]?
**A.** -5.5%

**Q.** What about the inhibition [20] of the same compound?
**A.** -1%

**Q.** What about the inhibition [21] of the same compound?
**A.** -2%

**Q.** And the inhibition [22]?
**A.** 11%

**Q.** What about the inhibition [23] of the same compound?
**A.** 10%

**Q.** What about the inhibition [24] of the same compound?
**A.** 7%

**Q.** What about the inhibition [25] of the same compound?
**A.** -6.5%

**Q.** What about the inhibition [26] of the same compound?
**A.** 11%

**Q.** And the inhibition [27]?
**A.** 13%

**Q.** And the inhibition [28]?
**A.** 7.5%

**Q.** What about the inhibition [29] of the same compound?
**A.** 1%

**Q.** What about the inhibition [30] of the same compound?
**A.** 38.5%

**Q.** What about the pIC50 [31] of the same compound?
**A.** 6.02

**Q.** And the inhibition (Homo sapiens [32])?
**A.** 74.5%

**Q.** What about the inhibition (Homo sapiens [33]) of the same compound?
**A.** 2%

**Q.** What about the inhibition [34] of the same compound?
**A.** 2%

**Q.** What about the inhibition [35] of the same compound?
**A.** 5.5%

**Q.** What about the inhibition [36] of the same compound?
**A.** 5%

**Q.** What about the inhibition [37] of the same compound?
**A.** 13%

**Q.** What about the inhibition [38] of the same compound?
**A.** -2.64%

**Q.** What about the inhibition [39] of the same compound?
**A.** 33.2%

**Q.** And the inhibition [40]?
**A.** 1.26%

**Q.** What about the inhibition [41] of the same compound?
**A.** 6.2%

**Q.** What about the inhibition [42] of the same compound?
**A.** -0.13%

**Q.** And the inhibition [43]?
**A.** 17.7%

**Q.** And the inhibition [44]?
**A.** -9.03%

**Q.** And the inhibition (Rattus norvegicus)?
**A.** -2.15%

**Q.** What about the inhibition [45] of the same compound?
**A.** 6.71%

**Q.** What about the inhibition [46] of the same compound?
**A.** -0.93%
